Molecules are shown by their SMILES.

This experiment deals with T1, human NEP (Homo sapiens, UniProt P08473).
T1 construct: purchased R&D Systems, Minneapolis, Minn; 1182-ZN
T1 sequence (P08473 52-750 limits assumed): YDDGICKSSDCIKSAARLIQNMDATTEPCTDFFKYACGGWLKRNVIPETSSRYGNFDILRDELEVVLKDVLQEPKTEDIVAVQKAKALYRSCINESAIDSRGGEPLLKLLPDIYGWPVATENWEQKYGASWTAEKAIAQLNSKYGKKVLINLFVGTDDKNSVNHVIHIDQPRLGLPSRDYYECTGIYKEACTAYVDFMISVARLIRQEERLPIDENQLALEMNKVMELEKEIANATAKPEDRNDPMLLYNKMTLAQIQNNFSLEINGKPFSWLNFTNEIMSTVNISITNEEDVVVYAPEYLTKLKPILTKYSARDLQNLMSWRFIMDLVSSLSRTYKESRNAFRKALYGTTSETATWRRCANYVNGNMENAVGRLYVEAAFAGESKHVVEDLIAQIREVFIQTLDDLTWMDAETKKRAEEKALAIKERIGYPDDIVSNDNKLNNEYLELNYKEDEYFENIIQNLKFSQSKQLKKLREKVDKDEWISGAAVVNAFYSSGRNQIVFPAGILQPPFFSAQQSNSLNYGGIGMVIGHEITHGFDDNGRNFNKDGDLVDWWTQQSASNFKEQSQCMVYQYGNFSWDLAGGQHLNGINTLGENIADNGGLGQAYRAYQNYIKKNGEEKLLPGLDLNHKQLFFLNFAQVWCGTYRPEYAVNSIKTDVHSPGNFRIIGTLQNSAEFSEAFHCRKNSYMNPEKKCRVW
The experiment can be described thus: In vitro enzyme inhibition assay, inhibitor potency at human NEP (Assay 1). The experiment is classed as biochemical. Particulars: recombinant human NEP; fluorogenic peptide substrate 10 μM; 37° C.; values given as ranges. In outline: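 Recombinant human NEP pre-incubated 30 min at 37 °C with compound ([…]), then 10 μM Mca-D-Arg-Arg-Leu-Dap-(Dnp)-OH added in 50 mM HEPES pH 7.5, 100 mM NaCl, 0.01% Tween-20, 10 μM ZnSO4; stopped after 20 min with acetic acid. Fluorescence ex 320/em 405 nm; Ki from nonlinear regression, reported as pKi.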
As to `O=C(NNC(=O)c1ccccc1[N+](=O)[O-])C(=O)N[C@H](Cc1ccc(-c2cccc(Cl)c2)cc1)C[C@@H](O)C(=O)O` [Example 8-6, (2R,4R)-5-(3′-Chlorobiphenyl-4-yl)-2-hydroxy-4-{2-[N′-(2-nitro-benzoyl)-hydrazino]-2-oxo-acetylamino}pentanoic acid], the inhibitory constant (Ki) is 1 to 10 nM. As for `O=C(N[C@H](Cc1ccc(-c2cccc(Cl)c2)cc1)C[C@@H](O)C(=O)O)C1CCCCO1` (stereo partly drawn) [Example 9, (2R,4R)-5-(3′-Chlorobiphenyl-4-yl)-2-hydroxy-4-[(tetrahydropyran-2-carbonyl)amino]pentanoic Acid], the inhibitory constant (Ki) was 1 to 10 nM.

With `O=C(CO)N[C@H](Cc1ccc(-c2cccc(Cl)c2)cc1)C[C@@H](O)C(=O)O` [Example 10-1, (2R,4R)-5-(3′-Chlorobiphenyl-4-yl)-2-hydroxy-4-(2-hydroxyacetylamino)-pentanoic acid], the Ki was 1 to 10 nM.

Turning to `COCC(=O)N[C@H](Cc1ccc(-c2cccc(Cl)c2)cc1)C[C@@H](O)C(=O)O` [Example 10-2, (2R,4R)-5-(3′-Chlorobiphenyl-4-yl)-2-hydroxy-4-(2-methoxyacetylamino)-pentanoic acid], the Ki was 1 to 10 nM. Regarding `CCOCC(=O)N[C@H](Cc1ccc(-c2cccc(Cl)c2)cc1)C[C@@H](O)C(=O)O` [Example 10-3, (2R,4R)-5-(3′-Chlorobiphenyl-4-yl)-4-(2-ethoxyacetylamino)-2-hydroxy-pentanoic acid], the Ki is 10 to 31.6 nM. Take `CC(C)OCC(=O)N[C@H](Cc1ccc(-c2cccc(Cl)c2)cc1)C[C@@H](O)C(=O)O` [Example 10-4, (2R,4R)-5-(3′-Chlorobiphenyl-4-yl)-2-hydroxy-4-(2-isopropoxyacetylamino)-pentanoic acid]: the Ki is 10 to 31.6 nM. For the molecule `O=C(COc1cccnc1)N[C@H](Cc1ccc(-c2cccc(Cl)c2)cc1)C[C@@H](O)C(=O)O` [Example 10-5, (2R,4R)-5-(3′-Chlorobiphenyl-4-yl)-2-hydroxy-4-[2-(pyridin-3-yloxy)-acetylamino]-pentanoic acid], the Ki was 1 to 10 nM. As for `O=C(COCc1ccccc1)N[C@H](Cc1ccc(-c2cccc(Cl)c2)cc1)C[C@@H](O)C(=O)O` [Example 10-6, (2R,4R)-4-(2-Benzyloxy-acetylamino)-5-(3′-chlorobiphenyl-4-yl)-2-hydroxy-pentanoic acid], the inhibitory constant (Ki) is 10 to 31.6 nM. Turning to `O=C(COc1ccccc1)N[C@H](Cc1ccc(-c2cccc(Cl)c2)cc1)C[C@@H](O)C(=O)O` [Example 10-7, (2R,4R)-5-(3′-Chlorobiphenyl-4-yl)-2-hydroxy-4-(2-phenoxyacetylamino)-pentanoic acid], the inhibitory constant (Ki) was 10 to 31.6 nM. Turning to `O=C(COc1ccc(O)cc1)N[C@H](Cc1ccc(-c2cccc(Cl)c2)cc1)C[C@@H](O)C(=O)O` [Example 10-8, (2R,4R)-5-(3′-Chlorobiphenyl-4-yl)-2-hydroxy-4-[2-(4-hydroxyphenoxy)-acetylamino]-pentanoic acid], the inhibition constant (Ki) is 10 to 31.6 nM. Next, `COc1cccc(OCC(=O)N[C@H](Cc2ccc(-c3cccc(Cl)c3)cc2)C[C@@H](O)C(=O)O)c1` [Example 10-9, (2R,4R)-5-(3′-Chlorobiphenyl-4-yl)-2-hydroxy-4-[2-(3-methoxyphenoxy)-acetylamino]-pentanoic acid]: 10 to 31.6 nM; `COCC(=O)N[C@H](Cc1ccc(-c2cccc(Cl)c2)cc1)C[C@@](C)(CO)C(=O)O` [Example 11, (2S,4R)-5-(3′-Chlorobiphenyl-4-yl)-2-hydroxymethyl-4-(2-methoxy-acetylamino)-2-methylpentanoic Acid]: 1 to 10 nM. Next, `C[C@@](CO)(C[C@@H](Cc1ccc(-c2cccc(Cl)c2)cc1)NC(=O)COCc1ccccc1)C(=O)O` [Example 12, (2S,4R)-4-(2-Benzyloxyacetylamino)-5-(3′-chlorobiphenyl-4-yl)-2-hydroxymethyl-2-methyl-pentanoic acid]: 10 to 31.6 nM. Next, `C[C@@](CO)(C[C@@H](Cc1ccc(-c2cccc(Cl)c2)cc1)NC=O)C(=O)O` [Example 13, (2S,4R)-5-(3′-Chlorobiphenyl-4-yl)-4-formylamino-2-hydroxymethyl-2-methyl-pentanoic Acid]: 1 to 10 nM.
